{"source": "patent US7115645B2", "about": "“1,2 diarylbenzimidazoles and their pharmaceutical use” (Schering Aktiengesellschaft, priority 2000, dated 2006)", "test_system": "primary rat microglia", "assay": "Inhibition of microglia activation (Aβ-peptide-activated primary rat microglia, MTS reduction)", "type": "cell-based", "conditions": "168 h, test of Example 307, metabolic activity via MTS reduction on cultivation day 7, relative to DMSO control", "data": [{"smiles": "Cc1ccc(-n2c(-c3ccccc3)nc3ccc(OCCCCCC(=O)OC(C)C)cc32)cc1", "note": "[Example 49, 6-[[1-(4-Methylphenyl)-2-phenyl-1H-benzimidazol-6-yl]oxy]hexanoic acid isopropyl ester]", "values": [{"measurement": "IC50", "result": 0.75, "unit": "µM"}]}]}
